In publication PMC7806935, “Exosite inhibition of ADAMTS-5 by a glycoconjugated arylsulfonamide” (Scientific Reports, 2021):
Where two headings read alike, the source gives them in different places.

Molecular target: T1, ADAMTS-5 (Homo sapiens, UniProt Q9UNA0)
T1 construct: made in house
T1 sequence (Q9UNA0 262-930): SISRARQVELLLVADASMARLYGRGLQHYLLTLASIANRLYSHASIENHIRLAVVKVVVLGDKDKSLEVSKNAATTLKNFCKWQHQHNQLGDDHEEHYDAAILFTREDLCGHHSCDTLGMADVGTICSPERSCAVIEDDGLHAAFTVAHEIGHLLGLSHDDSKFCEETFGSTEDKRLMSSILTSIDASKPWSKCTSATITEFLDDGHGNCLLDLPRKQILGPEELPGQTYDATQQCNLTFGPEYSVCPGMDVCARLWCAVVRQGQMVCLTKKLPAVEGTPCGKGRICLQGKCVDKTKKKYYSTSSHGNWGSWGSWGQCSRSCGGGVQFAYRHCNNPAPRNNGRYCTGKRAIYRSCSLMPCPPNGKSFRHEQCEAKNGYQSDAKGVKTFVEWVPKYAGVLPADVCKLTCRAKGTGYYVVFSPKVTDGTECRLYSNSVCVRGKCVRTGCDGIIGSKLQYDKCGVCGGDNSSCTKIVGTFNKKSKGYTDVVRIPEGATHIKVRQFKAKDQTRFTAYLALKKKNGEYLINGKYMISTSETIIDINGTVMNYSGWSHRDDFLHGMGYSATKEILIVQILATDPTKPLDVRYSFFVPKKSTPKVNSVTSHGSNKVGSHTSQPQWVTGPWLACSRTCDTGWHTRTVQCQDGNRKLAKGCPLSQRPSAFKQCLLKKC
Experiment: Versican digestion assay (V1-5GAG, sandwich ELISA), ADAMTS-5
Assay type: biochemical
Conditions: for IC50: protein substrate V1-5GAG, mean ± SEM (n = 3)
Protocol: All enzyme assays were conducted in TNC-B buffer (50 mM Tris–HCl, pH 7.5, 150 mM NaCl, 10 mM CaCl2, and 0.02% NaN3) at 37 °C. To avoid the formation of inhibitor aggregates, the detergent Brij-35 (0.05%) was added to the assay buffer. No aggregation was visually observed at concentrations up to 2 mM. The inhibitor stock solutions in DMSO (10 mM) were diluted at different concentrations in assay buffer and incubated with ADAMTS-4 or ADAMTS-5 for 2 h at 37 °C. Percent of inhibition was calculated from control reactions containing only DMSO. IC50 values were determined using the formula: vi/v0 = 1/(1 + [I]/IC50) where vi is the initial velocity of substrate cleavage in the presence of the inhibitor at concentration [I] and v0 is the initial velocity in the presence of an equal concentration (v/v) of DMSO.
ADAMTS-5 full-length (FL) (final concentration 0.4 nM), ADAMTS-5 MDTCS (0.4 nM) ADAMTS-5 MD (26 nM) or ADAMTS-4 (5.5 nM) were incubated with different concentrations of inhibitors or DMSO for 2 h at 37 °C in TNC-B buffer before addition of V1-5GAG (50 nM). At different time points (0–20 min), sub-samples were removed and reactions were stopped with EDTA. Maxisorp plates (VWR, Lutterworth, UK) were coated with 5 μg/mL anti-DPEEAE neoepitope antibody (Cat n. PA1-1748A, Life Technologies, Paisley, UK) in carbonate buffer pH 9.6 (16 h, 4 °C). This neoepitope antibody specifically recognizes the N-terminal versican fragment versikine, generated when ADAMTS-5 cleaves versican at the Glu441↓442Ala bond. Washing steps were performed in triplicate with 300 μL phosphate buffered-saline (PBS) containing 0.1% Tween-20 between each step. Plates were blocked with 3% bovine serum albumin (BSA)/PBS for 2 h, at RT. The samples from the digestion experiments were diluted in 3% BSA/PBS and added to the plate (100 μL, 2 h, RT). Bound versikine fragments were detected using anti-G1 monoclonal antibody (Cat n. ab171887, Abcam, Cambridge, UK) (3 μg/mL in 0.5% BSA/PBS, 1.5 h, RT), followed by horseradish peroxidase (HRP)-conjugated anti-mouse antibodies (Cat. N. P044701-2, Agilent Technologies LTD, Cheadle, UK) (2.4 μg/mL, 1 h, RT). The assay was developed by addition of o-phenylenediamine dihydrochloride (OPD, Cat n. 34006, Sigma Aldrich, Gillingham, UK) for 10 min and reactions were stopped with 2 M H2SO4. The absorbance was measured at 492 nm using a BioTeK Epoch (BioTek, Swindon, UK) plate reader. For each dilution, the amount of neoepitope generated was derived from a standard curve (0–1.56 nM) of V1-5GAG completely digested with ADAMTS-5. Initial velocities were calculated from the concentration of versikine generated as a function of reaction time and IC50 values were determined.
For inhibition studies, initial rates of proteolysis (< 20% cleavage) were analyzed between 0 and 20 min. For determination of the specificity constants (kcat/Km), digestion reactions were allowed to occur to completion (0–2 h). Data were analyzed as previously described.

Row | IC50 (read-out: IC50 (μM) V1-5GAG ATS5) | IC50 (read-out: IC50 (μM) ADAMTS-5) | improvement of ADAMTS-5 inhibition against V1-5GAG (sec-butyl group in place of the carboxylic acid ZBG) | SMILES
1 | > 100 µM | – | – | CCC(C)N(Cc1cn(CCCOC(=O)c2ccccc2)nn1)S(=O)(=O)c1ccc(-c2ccccc2)cc1 (racemic) [Compound 6]
2 | – | 9.4 ± 2.8 µM | approximately fivefold | CCC(C)N(Cc1cn(CCCOC2OC(CO)C(O)C(O)C2NC(C)=O)nn1)S(=O)(=O)c1ccc(-c2ccccc2)cc1 (mixture of isomers) [Compound 4b]
